From PubChem BioAssay (NCI)
Values joined by “and” are separate entries in the source; they are usually repeats but may differ in a detail not shown here. Equal values may be shown once.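 Compound exposure: 48 hours, 5 concentrations, 96-well plates. GI50 is the concentration that inhibits growth by half. TGI: total growth inhibition.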

Experiments:
Assay in all cases: growth of human tumour cells (NCI), 48 h
[1] = system: U251 CNS
[2] = system: 786-0 renal
[3] = system: MDA-MB-435
[4] = system: HCT-116 colon
[5] = system: NCI/ADR-RES ovarian
[6] = system: RXF 393 renal
[7] = system: HOP-92 NSCLC
[8] = system: MCF7 breast
[9] = system: NCI-H522 lung
[10] = system: SNB-75 CNS

Row | Structure (SMILES) | GI50 [1] | TGI [1] | GI50 [2] | TGI [2] | GI50 [3] | TGI [3] | GI50 [4] | TGI [4] | GI50 [5] | TGI [5] | GI50 [6] | TGI [6] | GI50 [7] | TGI [7] | GI50 [8] | TGI [8] | GI50 [9] | TGI [9] | GI50 [10] | TGI [10]
1 | S=C1SCN(Cc2ccccc2)CN1Cc1ccccc1 | 5.61 µM | 16.4 µM | 7.63 µM | 23.1 µM | 2.35 µM | 7.16 µM | 3.05 µM | 13 µM | 33.1 µM | > 100 µM | 1.55 µM | 6.32 µM | 2.37 µM | 13.8 µM | 2.19 µM | 15.1 µM | 3.83 µM | 10 µM | 15.4 µM | > 48.1 µM
2 | CC(=O)Nc1ccc(OC(C)=O)cc1 | < 0.01 µM | > 37.7 µM | < 0.01 µM | 5.52 µM | < 0.01 µM | < 0.01 µM | < 0.01 µM | 0.204 µM | < 0.0105 µM | > 7.41 µM | < 0.01 µM | 6.3 µM | < 0.0116 µM | 1.81 µM | < 0.01 µM | > 74.4 µM | < 0.01 µM | < 0.01 µM | < 0.01 µM | 28.6 µM
3 | O=C(Nc1cn[nH]c1-c1nc2ccc(CN3CCOCC3)cc2[nH]1)NC1CC1 | 0.274 µM and 1.3 µM | 11.2 µM and > 10 µM | 1.06 µM and 1.67 µM | 7.68 µM and > 10 µM | 1.43 µM and 6.77 µM | 5 µM and > 10 µM | 0.208 µM and 0.473 µM | 10.8 µM and > 10 µM | 12.1 µM and > 10 µM | > 86.7 µM | 0.241 µM and 0.287 µM | 1.79 µM and 2.17 µM | 0.365 µM and 1.06 µM | 2.6 µM and 8.8 µM | 0.522 µM and 2.07 µM | 7.37 µM and > 10 µM | 0.563 µM and 1.18 µM | 3.43 µM and > 10 µM | 0.0327 µM and 0.214 µM | 0.367 µM and 1.62 µM
4 | O=C1c2ccccc2C(=O)c2c1oc1c2c(=O)[nH]c2ccc(Cl)cc21 | 0.268 µM | 0.767 µM | 0.223 µM | 0.543 µM | 0.297 µM | 1.19 µM | 0.307 µM | 1.09 µM | 0.354 µM | 1.77 µM | 0.21 µM | 0.577 µM | 0.151 µM | 0.389 µM | 0.23 µM | 1.05 µM | 0.318 µM | 1.4 µM | 0.16 µM | 0.418 µM
5 | Cc1cc(=O)oc2cc3oc(N(C)c4ccccc4)nc(=O)c3cc12 |  | > 100 µM |  | > 100 µM |  | > 100 µM |  | > 100 µM |  | > 100 µM |  | > 100 µM |  | > 100 µM |  | > 100 µM |  | > 100 µM |  | > 100 µM
6 | COc1cc2c(cc1O)c(=O)n(CCN(C)C)c1c3cc4c(cc3ncc21)OCO4 | < 0.01 µM | 0.0426 µM | < 0.01 µM | 0.0291 µM | 0.0195 µM | 0.258 µM | 0.0117 µM | 1.25 µM | < 0.01 µM | 0.526 µM | 0.0318 µM | 0.116 µM | 0.0325 µM | 0.455 µM | < 0.01 µM | 1.62 µM | < 0.0104 µM | 0.154 µM | < 0.0152 µM | 0.315 µM
7 | O=c1oc2ccc(Cl)cc2c(=O)n1-c1ccc(F)cc1F | 1.87 µM | 36.7 µM | 3.07 µM | 10.5 µM | 1.64 µM | 7.73 µM | 2.53 µM | 10.4 µM | 2.63 µM | 9.5 µM | 1.76 µM | 5.72 µM |  | 0.176 µM | 2.42 µM | > 100 µM | 1.4 µM | 10.3 µM | 1.32 µM | 4.2 µM
8 | CC1OC(CC(=O)O)Cc2c1c(O)c1c(O)cc(-c3cc(=O)c4c(=O)c5c(c(=O)c=4c3=O)CC(CC(=O)O)OC5C)c(O)c1c2O (stereo unspecified) | 26.1 µM | > 74 µM and 61 µM | 32.1 µM | 46.7 µM | 16.8 µM | 36.7 µM | 30.4 µM | 27.2 µM | 59.6 µM |  | 12 µM | 20.3 µM and 27 µM |  | 41.3 µM | 27.7 µM |  | 17.8 µM | 18.9 µM and 64.7 µM | 19.4 µM | > 100 µM and 57.1 µM
9 | CCc1cccc(NC(=O)Nc2ccc(Oc3ccc4nc(NC(=O)OC)[nH]c4c3)cc2)c1 | 4.85 µM | > 15.4 µM | 7 µM | > 25 µM | 0.0716 µM | 0.643 µM | 3.39 µM | > 14.9 µM | 10.5 µM | > 25 µM | 2.05 µM | 10.9 µM | 2.33 µM | 10.4 µM | 0.654 µM | > 6.24 µM | 0.921 µM | 14.8 µM | 2.53 µM | > 14.1 µM
10 | Cc1ccc2[nH]c(O)c(N=Nc3ccccc3[N+](=O)[O-])c2c1 |  | 18.6 µM |  | 3.6 µM |  | > 100 µM |  | 12.2 µM |  | > 40.2 µM |  | 20.8 µM |  | 6.55 µM |  | > 100 µM |  | 5.29 µM |  | > 50 µM
11 | CCCCc1n(Cc2ccc3ccccc3n2)cc[n+]1Cc1ccc2ccccc2n1 | 0.925 µM | 12.4 µM | 4.65 µM | 17.3 µM | 0.71 µM | 7.78 µM | 2.1 µM | 11 µM | > 100 µM | > 100 µM | 4.17 µM | 16.5 µM | 0.491 µM | 4.34 µM | 0.807 µM | 11.2 µM | 0.445 µM | 4.99 µM | 0.889 µM | 6.01 µM
12 | C/C(CC(C)(C)N1CC1)=N\NC(=O)Nc1cccc2ccccc12 | 3.52 µM | 14.4 µM | 3.04 µM | 9.87 µM | 6.19 µM | 19.9 µM | 3.32 µM | 11.5 µM | 3.67 µM | 22.4 µM | 2.08 µM | 5.46 µM | 1.65 µM | 6.99 µM | 2.42 µM | 11.2 µM | 2.04 µM | 5.36 µM | 2.62 µM | 13.8 µM
13 | COc1cc(NS(C)(=O)=O)ccc1Cc1c2ccccc2nc2ccccc12 | 0.136 µM | 1.21 µM | 0.139 µM | 0.64 µM | 1.23 µM | 11.3 µM | 0.135 µM | 1.93 µM | 1.44 µM | 10 µM | 0.396 µM | 2.06 µM | 0.129 µM | 1.14 µM | 0.0517 µM | 5 µM | 0.0712 µM | 0.961 µM | 0.188 µM | 1.54 µM
14 | Cc1ccc(-c2nc(/C=N/Nc3cc(C)nc4ccc(Br)cc34)c(C)o2)cc1 | 1.84 µM | 3.45 µM | 1.86 µM | 3.67 µM | 1.72 µM | 3.12 µM | 1.85 µM | 3.46 µM | 1.99 µM | 4.46 µM | 1.65 µM | 3.22 µM | 1.5 µM | 2.98 µM | 1.92 µM | 3.99 µM | 1.94 µM | 4.13 µM | 1.74 µM | 3.39 µM
15 | CCOC(=O)c1c2c(n3ccc(NC(=O)CCN4CCCCC4)cc13)C(=O)c1ncccc1C2=O | 1.09 µM | 2.47 µM | 0.124 µM | 2.32 µM | 1.16 µM | 2.47 µM | 0.106 µM | 2.21 µM | 1.14 µM | 3.66 µM | 0.256 µM | 2.4 µM | 9.63 µM | 24.6 µM | < 0.01 µM | 1.95 µM | 0.0158 µM | 1.72 µM | 0.506 µM | 5.98 µM
16 | FC(F)(F)c1nc(SCc2ccc(Cl)cc2)n[nH]1 |  | > 100 µM |  | > 100 µM |  | > 100 µM |  | > 100 µM |  | > 100 µM |  | > 100 µM |  | > 100 µM |  | > 100 µM |  | > 100 µM |  | > 100 µM
17 | CCc1[nH]nc(C(N)=O)c1N=NN(C)C |  | > 100 µM |  | > 100 µM |  | > 100 µM |  | > 100 µM |  | > 100 µM |  | > 100 µM |  | > 100 µM |  | > 100 µM |  | > 100 µM |  | > 100 µM
18 | CC1=C2[C@@H](CC1)[C@]1(C)O[C@@](C(C)C)(C[C@H]1OC(=O)CO)[C@H]2OC(=O)CCCc1ccccc1 | 5.61 µM | 20.9 µM | 13.1 µM | 28.7 µM | 13.1 µM | 26.2 µM | 3.54 µM | 13.9 µM | 3.87 µM | 20 µM | 11.9 µM | 25.6 µM | 3.86 µM | 18 µM | 13.2 µM | 29.7 µM | 7.51 µM | 24.6 µM | 2.08 µM | 18.5 µM
19 | CCN(CC)CCCNc1n[n+]([O-])c2ccccc2[n+]1[O-] |  | > 100 µM |  | 33.4 µM |  | > 100 µM |  | 57.3 µM |  | > 100 µM |  | 76.2 µM |  | > 100 µM |  | 42.4 µM |  | 26.5 µM |  | 77.1 µM
